Target: Glycogen synthase kinase-3 beta (Homo sapiens, UniProt P49841)
Test: Inhibition of human GSK3beta using YRRAAVPPSPSLSRHSSPHQ(pS)EDEEE as substrate in presence of gamma-33P-ATP

Chain of Glycogen synthase kinase-3 beta (P49841 whole entry): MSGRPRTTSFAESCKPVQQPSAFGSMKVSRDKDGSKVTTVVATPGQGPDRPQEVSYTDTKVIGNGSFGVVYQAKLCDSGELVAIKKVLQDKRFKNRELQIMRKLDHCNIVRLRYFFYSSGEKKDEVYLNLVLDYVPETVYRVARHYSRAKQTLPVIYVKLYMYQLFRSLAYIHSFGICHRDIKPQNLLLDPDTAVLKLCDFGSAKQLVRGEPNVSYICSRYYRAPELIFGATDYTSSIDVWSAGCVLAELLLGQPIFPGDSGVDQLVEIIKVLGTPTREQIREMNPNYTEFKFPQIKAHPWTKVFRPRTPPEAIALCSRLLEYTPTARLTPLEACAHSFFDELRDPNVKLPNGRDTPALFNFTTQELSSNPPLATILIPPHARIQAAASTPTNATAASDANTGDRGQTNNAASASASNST

| SMILES | IC50 |
| --- | --- |
| O=C(/C=C/c1cnc2[nH]cc(-c3ccccc3)c2c1)N[C@@H](CO)Cc1ccccc1 | 752 nM |
| O=C(CNC(=O)c1ccc2[nH]cc(-c3ccccc3)c2c1)NCCc1c[nH]c2ccccc12 | > 50000 nM |
| O=C(CNC(=O)c1cnc2[nH]c(-c3ccccc3)cc2c1)NCCc1c[nH]c2ccccc12 | > 50000 nM |
| O=C(/C=C/c1cnc2[nH]cc(-c3ccccc3)c2c1)NCCc1cccnc1 | 32 nM |
| C[C@@H](NC(=O)/C=C/c1cnc2[nH]cc(-c3ccccc3)c2c1)[C@@H](O)c1ccccc1 | 180 nM |
| O=C(/C=C/c1cnc2[nH]cc(-c3ccccc3)c2c1)NCCc1ccccn1 | 19 nM |
| O=C(CNC(=O)c1cnc2[nH]ccc2c1)NCCc1c[nH]c2ccccc12 | > 50000 nM |
| O=C(/C=C/c1cnc2[nH]cc(-c3ccccc3)c2c1)NCCc1c[nH]cn1 | 49 nM |
| O=C(CNC(=O)c1cnc2[nH]cc(C(=O)c3ccccc3)c2c1)NCCc1c[nH]c2ccccc12 | 15700 nM |
| O=C(CNC(=O)c1cnc2[nH]cc(-c3ccccc3)c2c1)NCCc1c[nH]cn1 | 2610 nM |

— ChEMBL document CHEMBL3867471, “Identification of lead small molecule inhibitors of glycogen synthase kinase-3 beta using a fragment-linking strategy” (Bioorg Med Chem Lett, 2016)
